Consider two compounds from patent publication US20080027113A1, “Methods of Using and Compositions Comprising Immunomodulatory Compounds for Treatment and Management of Macular Degeneration” (priority 2003, published 2008).

Experiment [1] deals with TNF-α production. In words: Inhibition of TNF-α production following LPS-stimulation of human PBMC. In kind it is cell-based. As to conditions: for inhibition of LPS-stimulated production of TNF-α by PBMC: result in words; for IC50: human PBMC, LPS-stimulated, read-out: IC50 for inhibiting production of TNF-α following LPS-stimulation of PBMC.
Experiment [2] has as its system TNF-α production. In words: Inhibition of TNF-α production following LPS-stimulation of human whole blood. In kind it is cell-based. As to conditions: LPS-stimulated, read-out: IC50 for inhibiting production of TNF-α following LPS-stimulation of human whole blood.
For the next experiment, the system named is IL6 production. In words: LPS-stimulated production of IL6 by PBMC. In kind it is cell-based. As to conditions: result in words.
For the next experiment, the system named is IL10 production. In words: Production of anti-inflammatory cytokine IL10 by PBMC. In kind it is cell-based. As to conditions: result in words.
The subject of experiment [3] is patients with macular degeneration. In words: Clinical study in patients with macular degeneration, adjuvant to photodynamic therapy with verteporfin. In kind it is in vivo, human. As to conditions: about 10 mg/day for 20 weeks as adjuvant to verteporfin photodynamic therapy. How it is done: Immunomodulatory compounds are administered in an amount of about 0.1 to about 25 mg per day to patients with macular degeneration. In a specific embodiment, clinical studies are performed with forty patients with macular degeneration, who are divided into two groups. The first group receives conventional treatment for closing the leaking choroidal vessels (characteristic of this disease) by photodynamic therapy with verteporfin. Ophthalmol 1999 (117): 1329-1345.
Progressive visual loss follows which requires the photodynamic therapy to be repeated.

For another experiment, the system named is IL1β production. In words: LPS-stimulated production of IL1β by PBMC. As to conditions: result in words.

As for `Nc1cccc2c1CN(C1CCC(=O)NC1=O)C2=O` (stereo not shown), in the experiment with TNF-α production [1], the “inhibition of LPS-stimulated production of TNF-α by PBMC” value is “dose-dependent inhibition” and the IC50 was ~100 nM. For the same compound, in the experiment with TNF-α production [2], the IC50 is ~480 nM. Besides, the “inhibition of LPS-stimulated production of IL6 by PBMC” value with IL6 production was “dose-dependent inhibition”. Besides, the “production of the anti-inflammatory cytokine IL10” value in the experiment with IL10 production is “increased production”. For the same compound, in experiment [3], the “effect on neovascular cascade / duration of photodynamic therapy effect” value is on record as “sufficiently hindered”. For the same compound, in the experiment with IL1β production, the “inhibition of LPS-stimulated production of IL1β by PBMC” value is “dose-dependent inhibition”.

As to `Nc1cccc2c1C(=O)N(C1CCC(=O)NC1=O)C2=O` (stereo not shown), in the experiment on TNF-α production [1], the “inhibition of LPS-stimulated production of TNF-α by PBMC” value is recorded as “dose-dependent inhibition” and the IC50 is ~24 nM. Moreover, the IC50 in the experiment on TNF-α production [2] was ~25 nM. Moreover, in the experiment on IL6 production, the “inhibition of LPS-stimulated production of IL6 by PBMC” value was “dose-dependent inhibition”. For the same compound, the “production of the anti-inflammatory cytokine IL10” value with IL10 production is given as “increased production”. In the experiment with IL1β production, the “inhibition of LPS-stimulated production of IL1β by PBMC” value was “dose-dependent inhibition”.
